Here are results for one substance from publication PMC3057712 (Molecular Biology of the Cell, 2011).

The target of the assay is T1, Sfh1 (Saccharomyces cerevisiae, UniProt P33324).
T1 sequence (P33324 1-310): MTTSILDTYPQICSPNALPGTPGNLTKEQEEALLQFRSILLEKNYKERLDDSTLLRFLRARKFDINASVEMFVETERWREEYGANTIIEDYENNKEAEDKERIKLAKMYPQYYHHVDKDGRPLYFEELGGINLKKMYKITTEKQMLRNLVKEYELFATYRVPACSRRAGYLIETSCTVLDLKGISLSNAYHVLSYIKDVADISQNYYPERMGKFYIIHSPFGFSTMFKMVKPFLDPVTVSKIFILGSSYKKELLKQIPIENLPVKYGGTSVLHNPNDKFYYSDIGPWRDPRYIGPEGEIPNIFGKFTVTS
Briefly: CW X-band EPR, loading from multilamellar liposomes. The assay is classed as binding. Conditions: 130 μM protein, twofold molar excess of lipid, pH 6.8, 23°C; labelled compound.

On to “1-acyl-2-(n-(4,4-dimethyloxazolidine-N-oxyl)stearoyl)-sn-glycero-3-phosphocholines [16-doxyl-PtdCho]”, for which the “% of total protein loaded” value is on record as ~ 20%.
